In test [1] the test system is BPH / spontaneous acute urinary retention. The settings on record: patients with BPH; cited from earlier work.
Test [2] deals with precipitated acute urinary retention. The experiment in a line: Four-year double-blind, placebo-controlled study in men with BPH: precipitated acute urinary retention. The class given is in vivo, human. As for the experimental part: A total of 3040 men with moderate to severe symptoms of BPH and enlarged prostates were treated with either finasteride (17β-(N-tert-butylcarbamoyl)-3-oxo-4-aza-5α-androst-1-en-3-one,5 mg daily) or placebo in a four year double-blind, placebo-controlled study. BPH-related outcomes were assessed every 4 months. Patients on alpha blockers, antiandrogens, with a history of chronic prostatitis, recurrent urinary tract infections, or prior prostate or bladder surgery were excluded. A total of 3016 patients randomized to treatment had efficacy data and were included in the analysis of precipitated acute urinary retention; 1513 in the finasteride group and 1503 in the placebo group.
The endpoint committee, blinded to treatment group, reviewed all study-related documents related to episodes of acute urinary retention to classify the episodes as spontaneous or precipitated by other factors. All acute urinary retentions were classified by the endpoint committee as being "clearly" BPH related ("spontaneous") if there was no clear precipitating event, such as surgery within 72 hours, a precipitating medical event (e.g. stroke), or ingestion of a medication thought to precipitate retention (e.g., pseudoephedrine hydrochloride), etc. The other episodes of acute urinary retention were classified as not "clearly" BPH related ("precipitated") since there was likely to be more than one factor (including BPH) involved that precipitated the event.
Acute urinary retention was analyzed using the log-rank test for time-to-first-event and corroborated with Fisher's exact test on the cumulative incidence.

In test [3] the test system is human type 2 enzyme (5α-reductase). The settings on record: cited from earlier work.

In the case of `CC(C)(C)NC(=O)[C@H]1CC[C@H]2[C@@H]3CC[C@H]4NC(=O)C=C[C@]4(C)[C@H]3CC[C@]12C` [finasteride, 17β-(N-tert-butylcarbamoyl)-3-oxo-4-aza-5α-androst-1-en-3-one], in test [1], the “reducing spontaneous acute urinary retention (in words)” value is “significantly reducing spontaneous acute urinary retention” and the “treating BPH (in words)” value is reported as “effective in treating BPH”. In addition, the “patients with an episode of precipitated acute urinary retention (percent)” value in test [2] (5 mg daily, 4-year study period, n=1513 finasteride, placebo 3.3%) came to 1.5%. In test [2] (5 mg daily, 4-year study period, n=1513 finasteride, placebo 49 of 1503), the “patients with an episode of precipitated acute urinary retention (number)” value was 23 patients. Besides, the “reduction of the risk of having an episode of precipitated acute urinary retention” value in test [2] (5 mg daily, compared with placebo, over the 4-year study period) was found to be 52%. In test [2] (finasteride 5 mg daily versus placebo, 4-year study period), the “relative risk (hazard ratio) versus placebo, precipitated acute urinary retention” value was 0.48. Moreover, in test [3], the “inhibition of the human type 2 enzyme (in words)” value was “potent inhibitor of the human type 2 enzyme”.

(Values after patent publication US5942519A, “Prevention of precipitated acute urinary retention” (Merck & Co., Inc., priority 1998, dated 1999).)
